Molecular target: T1, His-hMAGL (recombinant polyhistidine tagged human MAGL protein) (Homo sapiens, UniProt Q99685)
T1 construct: made in house; host or cells: E. coli BL21(DE3)
T1 sequence (Q99685 1-303): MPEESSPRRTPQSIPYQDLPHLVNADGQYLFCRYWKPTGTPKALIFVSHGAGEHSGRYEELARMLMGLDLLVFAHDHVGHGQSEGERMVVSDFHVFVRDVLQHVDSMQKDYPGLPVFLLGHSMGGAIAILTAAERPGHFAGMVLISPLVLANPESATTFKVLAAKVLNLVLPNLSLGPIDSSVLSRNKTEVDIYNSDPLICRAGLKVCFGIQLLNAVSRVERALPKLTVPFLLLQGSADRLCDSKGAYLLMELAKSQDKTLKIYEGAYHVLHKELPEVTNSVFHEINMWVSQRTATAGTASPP
Assay: Measurement of MAGL inhibitory activity (arachidonic acid production from 2-arachidonylglycerol, RapidFire-mass spectrometry)
Type: biochemical
Conditions: MAGL inhibitory rate, test compound 10 μM, 60 min preincubation, 2-arachidonylglycerol substrate
Summary of the method: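 Arachidonic acid formed was quantified by online solid-phase extraction and triple-quadrupole MS in negative SRM mode against a d8 internal standard. Reaction: recombinant His-hMAGL (7.5 ng/mL, pH 7.5 Tris buffer with Triton X-100 and BSA) plus 2-AG (5 μL of 150 μM stock) for 10 min at room temperature, quenched with 2% formic acid. Percent inhibition corrected for enzyme-free background.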

SMILES | inhibition at 10 µM | % inhibition (10 μM) (10 µM)
Cc1c(C(=O)N2CC3(CCC(=O)N3)C2)sc2cc(C(F)(F)F)ccc12 [Example 366, 2-((3-methyl-6-(trifluoromethyl)-1-benzothiophen-2-yl)carbonyl)-2,5-diazaspiro[3.4]octan-6-one] | 99% | –
Cc1ccc(-c2ccc3c(Cl)c(C(=O)N4CC5(CCC(=O)N5)C4)sc3c2)s1 [Example 232, 2-((3-chloro-6-(5-methyl-2-thienyl)-1-benzothiophen-2-yl)carbonyl)-2,5-diazaspiro[3.4]octan-6-one] | 99% | –
O=C1NC2(CO1)CN(C(=O)c1sc3cc(-c4ccccc4F)ccc3c1-c1ccccc1F)C2 [Example 346, 2-((3,6-bis(2-fluorophenyl)-1-benzothiophen-2-yl)carbonyl)-7-oxa-2,5-diazaspiro[3.4]octan-6-one] | 100% | –
O=C1CCC2(CN(C(=O)c3sc4cc(-c5cccc(F)c5)ccc4c3Cl)C2)N1 [Example 37, 2-((3-chloro-6-(3-fluorophenyl)-1-benzothiophen-2-yl)carbonyl)-2,5-diazaspiro[3.4]octan-6-one] | 99% | –
O=C1CCC2(CN(C(=O)c3ccc(-c4ccc(Cl)cc4Cl)cc3)C2)N1 [Example 84, 2-((2′,4′-dichlorobiphenyl-4-yl)carbonyl)-2,5-diazaspiro[3.4]octan-6-one] | 101% | –
O=C1CCC2(CN(C(=O)N3CCC(Cc4ccc(Cl)c(Cl)c4)CC3)C2)N1 [Example 103, 2-((4-(3,4-dichlorobenzyl)piperidin-1-yl)carbonyl)-2,5-diazaspiro[3.4]octan-6-one] | 103% | –
O=C1CCC2(CN(C(=O)c3ccc(-c4cccc(OCC5CC5)c4)cc3)C2)N1 [Example 171, 2-((3′-(cyclopropylmethoxy)biphenyl-4-yl)carbonyl)-2,5-diazaspiro[3.4]octan-6-one] | 98% | –
O=C1CCC2(CN(C(=O)c3ccc(-c4cc(Cl)ccc4Cl)cc3)C2)N1 [Example 80, 2-((2′,5′-dichlorobiphenyl-4-yl)carbonyl)-2,5-diazaspiro[3.4]octan-6-one] | 98% | –
O=C1NC2(CO1)CN(C(=O)c1sc3c(C(F)(F)F)cccc3c1OC(F)F)C2 [Example 272, 2-((3-(difluoromethoxy)-7-(trifluoromethyl)-1-benzothiophen-2-yl)carbonyl)-7-oxa-2,5-diazaspiro[3.4]octan-6-one] | 100% | –
O=C1NC2(CO1)CN(C(=O)c1sc3c(Cl)ccc(OC(F)(F)F)c3c1Cl)C2 [Example 297, 2-((3,7-dichloro-4-(trifluoromethoxy)-1-benzothiophen-2-yl)carbonyl)-7-oxa-2,5-diazaspiro[3.4]octan-6-one] | 100% | –
O=C1CCC2(CN(C(=O)N3CC(COc4ccc(F)cc4Cl)C3)C2)N1 [Example 34, 2-((3-((2-chloro-4-fluorophenoxy)methyl)azetidin-1-yl)carbonyl)-2,5-diazaspiro[3.4]octan-6-one] | 99% | –
O=C1CCC2(CN(C(=O)c3sc4cc(-c5c(F)cccc5F)ccc4c3Cl)C2)N1 [Example 213, 2-((3-chloro-6-(2,6-difluorophenyl)-1-benzothiophen-2-yl)carbonyl)-2,5-diazaspiro[3.4]octan-6-one] | 100% | –
O=C1CCC2(CN(C(=O)c3ccc(-c4ccccc4)cc3OC(F)(F)F)C2)N1 [Example 172, 2-((3-(trifluoromethoxy)biphenyl-4-yl)carbonyl)-2,5-diazaspiro[3.4]octan-6-one] | 88% | –
O=C1CCC2(CN(C(=O)c3ccc(-c4ccc(F)c(C(F)(F)F)c4)cc3)C2)N1 [Example 50, 2-((4′-fluoro-3′-(trifluoromethyl)biphenyl-4-yl)carbonyl)-2,5-diazaspiro[3.4]octan-6-one] | 98% | –
Cc1cc(OC(F)(F)F)cc2sc(C(=O)N3CCC4(COC(=O)N4)C3)c(Cl)c12 (stereo not shown) [Example 331, 7-((3-chloro-4-methyl-6-(trifluoromethoxy)-1-benzothiophen-2-yl)carbonyl)-3-oxa-1,7-diazaspiro[4.4]nonan-2-one] | 101% | –
Cc1c(OC(F)(F)F)ccc2c(Cl)c(C(=O)N3CC4(COC(=O)N4)C3)sc12 [Example 286, 2-((3-chloro-7-methyl-6-(trifluoromethoxy)-1-benzothiophen-2-yl)carbonyl)-7-oxa-2,5-diazaspiro[3.4]octan-6-one] | 100% | –
O=C1CCC2(CN(C(=O)c3ccc4nc(-c5ccc(F)cc5)oc4c3)C2)N1 [Example 13, 2-((2-(4-fluorophenyl)-1,3-benzoxazol-6-yl)carbonyl)-2,5-diazaspiro[3.4]octan-6-one] | 89% | –

SMILES | inhibition at 10 µM | % inhibition (10 μM) (10 µM)
O=C1NC2(CCN(C(=O)N3CCC(COc4ccc(F)cc4Cl)CC3)C2)CO1 (stereo not shown) [Example 322, 7-((4-((2-chloro-4-fluorophenoxy)methyl)piperidin-1-yl)carbonyl)-3-oxa-1,7-diazaspiro[4.4]nonan-2-one] | 100% | –
O=C1CCC2(CN(C(=O)c3ccc(-c4ccc5cnsc5c4)cc3)C2)N1 [Example 73, 2-(4-(1,2-benzothiazol-6-yl)benzoyl)-2,5-diazaspiro[3.4]octan-6-one] | 98% | –
Cc1cc(CO[C@H]2C[C@@H](C(=O)N3CC4(COC(=O)N4)C3)C2)ccc1Cl [Example 357, 2-((cis-3-((4-chloro-3-methylbenzyl)oxy)cyclobutyl)carbonyl)-7-oxa-2,5-diazaspiro[3.4]octan-6-one] | 100% | –
O=C1CCC2(CN(C(=O)c3ccc(-c4ccc(C(F)(F)F)cc4F)cc3)C2)N1 [Example 46, 2-((2′-fluoro-4′-(trifluoromethyl)biphenyl-4-yl)carbonyl)-2,5-diazaspiro[3.4]octan-6-one] | 96% | –
Cc1ccc(F)c(-c2ccc3c(Cl)c(C(=O)N4CC5(CCC(=O)N5)C4)sc3c2)c1 [Example 202, 2-((3-chloro-6-(2-fluoro-5-methylphenyl)-1-benzothiophen-2-yl)carbonyl)-2,5-diazaspiro[3.4]octan-6-one] | 100% | –
O=C1CCC2(CN(C(=O)c3sc4cc(-c5ccc(Cl)cc5)ccc4c3Cl)C2)N1 [Example 191, 2-((3-chloro-6-(4-chlorophenyl)-1-benzothiophen-2-yl)carbonyl)-2,5-diazaspiro[3.4]octan-6-one] | 97% | –
O=C1CCC2(CN(C(=O)c3sc(-c4cccc(OCC5CC5)c4)cc3Cl)C2)N1 [Example 182, 2-((3-chloro-5-(3-(cyclopropylmethoxy)phenyl)-2-thienyl)carbonyl)-2,5-diazaspiro[3.4]octan-6-one] | 98% | –
O=C1NC2(CO1)CN(C(=O)[C@H]1C[C@H](OCc3ccc(C(F)(F)F)cc3F)C1)C2 [Example 354, 2-((trans-3-((2-fluoro-4-(trifluoromethyl)benzyl)oxy)cyclobutyl)carbonyl)-7-oxa-2,5-diazaspiro[3.4]octan-6-one] | 100% | –
O=C1CCC2(CN(C(=O)c3ccc(-c4cccc(C(F)(F)F)c4F)cc3)C2)N1 [Example 49, 2-((2′-fluoro-3′-(trifluoromethyl)biphenyl-4-yl)carbonyl)-2,5-diazaspiro[3.4]octan-6-one] | 99% | –
O=C1NC2(CO1)CN(C(=O)c1sc3cc(F)cc(OCC4CC4)c3c1Cl)C2 [Example 363, 2-((3-chloro-4-(cyclopropylmethoxy)-6-fluoro-1-benzothiophen-2-yl)carbonyl)-7-oxa-2,5-diazaspiro[3.4]octan-6-one] | 99% | –
O=C1CCC2(CN(C(=O)c3sc(-c4cccc(C(F)(F)F)c4)cc3Cl)C2)N1 [Example 177, 2-((3-chloro-5-(3-(trifluoromethyl)phenyl)-2-thienyl)carbonyl)-2,5-diazaspiro[3.4]octan-6-one] | 98% | –
O=C1NC2(CO1)CN(C(=O)c1sc3ccc(C(F)(F)F)cc3c1C(F)F)C2 [Example 275, 2-((3-(difluoromethyl)-5-(trifluoromethyl)-1-benzothiophen-2-yl)carbonyl)-7-oxa-2,5-diazaspiro[3.4]octan-6-one] | 100% | –
O=C1NC2(CCN(C(=O)c3sc4c(F)c(F)cc(Cl)c4c3Cl)C2)CO1 (stereo not shown) [Example 340, 7-((3,4-dichloro-6,7-difluoro-1-benzothiophen-2-yl)carbonyl)-3-oxa-1,7-diazaspiro[4.4]nonan-2-one] | 99% | –
O=C1NC2(CCN(C(=O)c3sc4c(F)c(C(F)(F)F)ccc4c3Cl)C2)CO1 (stereo not shown) [Example 342, 7-((3-chloro-7-fluoro-6-(trifluoromethyl)-1-benzothiophen-2-yl)carbonyl)-3-oxa-1,7-diazaspiro[4.4]nonan-2-one] | 100% | –
O=C1NC2(CCN(C(=O)c3sc4cc(OC(F)(F)F)ccc4c3Cl)C2)CO1 (stereo not shown) [Example 324, 7-((3-chloro-6-(trifluoromethoxy)-1-benzothiophen-2-yl)carbonyl)-3-oxa-1,7-diazaspiro[4.4]nonan-2-one] | – | 94%
Cc1cc(Cl)ccc1CC1CCN(C(=O)N2CC3(CCC(=O)N3)C2)CC1 [Example 104, 2-((4-(4-chloro-2-methylbenzyl)piperidin-1-yl)carbonyl)-2,5-diazaspiro[3.4]octan-6-one] | 98% | –
O=C1CCC2(CN(C(=O)c3ccc(-c4cc(F)ccc4Cl)cc3)C2)N1 [Example 79, 2-((2′-chloro-5′-fluorobiphenyl-4-yl)carbonyl)-2,5-diazaspiro[3.4]octan-6-one] | 92% | –

Reference: US10610520B2, “Heterocyclic compound” (Takeda Pharmaceutical Company Limited, priority 2016, dated 2020)
